From ChEMBL document CHEMBL1681744, “1-((3S,4S)-4-amino-1-(4-substituted-1,3,5-triazin-2-yl) pyrrolidin-3-yl)-5,5-difluoropiperidin-2-one inhibitors of DPP-4 for the treatment of type 2 diabetes” (Bioorg Med Chem Lett, 2011) come the findings set out here.

In one series the target is Dipeptidyl peptidase 4 (Homo sapiens, UniProt P27487).
The test system of a further series is Liver microsomes. Briefly: Intrinsic clearance in human liver microsomes. The format is ADME, Microsome. In general terms: Liver microsomes are a subcellular fraction often used to study metabolism.
Another series has as its target Dipeptidyl peptidase 2 (Homo sapiens, UniProt Q9UHL4). Briefly: Inhibition of DPP2.
Series [1] can be described thus: Apparent permeability from apical to basolateral side of MDCK cells by RRCK assay. The format is ADME, cell-based, Canis lupus familiaris. To be noted: dog.
The next series addresses Dipeptidyl peptidase 8 (Homo sapiens, UniProt Q6V1X1).
A short description of series [2]: Oral bioavailability in rat at 5 mg/kg. The format is ADME, organism-based. To be noted: in vivo.
A short description of series [3]: Volume of distribution at steady state in rat at 1 mg/kg, iv. More on the design: dose 1 mg/kg, route intravenous. Conditions: in vivo, read-out: Vdss. The format is ADME, organism-based.
Series [4] is described as follows: Half life in rat at 1 mg/kg, iv and 5 mg/kg, po. The format is ADME, organism-based. To be noted: in vivo.
Series [5] is described as follows: Clearance in rat plasma at 1 mg/kg, iv and 5 mg/kg, po. The format is ADME, organism-based.
Series [6] can be described thus: Fraction unbound in rat plasma. The format is ADME, cell-free.
Another series relates to Rattus norvegicus. Put plainly: Ex vivo inhibition of DPP4 in rat at 5 mg/kg, po after 16 hrs. More on the design: dose 5 mg/kg. The format is functional, organism-based.
Another series addresses Cytochrome P450 2D6 (Homo sapiens, UniProt P10635). Briefly: Inhibition of CYP2D6. The format is ADME.
Series [7] in a line: Volume of distribution at steady state in dog. Conditions: in vivo, read-out: Vdss. The format is ADME, organism-based, Canis lupus familiaris.
The next series has as its target Cytochrome P450 3A4 (Homo sapiens, UniProt P08684). Put plainly: Inhibition of CYP3A4. The format is ADME.
Series [8] is described as follows: Fraction unbound in human plasma. The format is ADME, cell-free.
Series [9] is described as follows: Oral bioavailability in dog. The format is ADME, organism-based, Canis lupus familiaris. Conditions: in vivo.
The nature of series [10]: Clearance in dog. The format is ADME, organism-based, Canis lupus familiaris. Conditions: in vivo.
The target in another series is Cytochrome P450 2C9 (Homo sapiens, UniProt P11712). Briefly: Inhibition of CYP2C9. The format is ADME.
The nature of series [11]: Half life in dog. The format is ADME, organism-based, Canis lupus familiaris. To be noted: in vivo.
Another series has as its target T1, Cytochrome P450 1A2 (Homo sapiens, UniProt P05177).
T1 sequence (P05177 whole entry): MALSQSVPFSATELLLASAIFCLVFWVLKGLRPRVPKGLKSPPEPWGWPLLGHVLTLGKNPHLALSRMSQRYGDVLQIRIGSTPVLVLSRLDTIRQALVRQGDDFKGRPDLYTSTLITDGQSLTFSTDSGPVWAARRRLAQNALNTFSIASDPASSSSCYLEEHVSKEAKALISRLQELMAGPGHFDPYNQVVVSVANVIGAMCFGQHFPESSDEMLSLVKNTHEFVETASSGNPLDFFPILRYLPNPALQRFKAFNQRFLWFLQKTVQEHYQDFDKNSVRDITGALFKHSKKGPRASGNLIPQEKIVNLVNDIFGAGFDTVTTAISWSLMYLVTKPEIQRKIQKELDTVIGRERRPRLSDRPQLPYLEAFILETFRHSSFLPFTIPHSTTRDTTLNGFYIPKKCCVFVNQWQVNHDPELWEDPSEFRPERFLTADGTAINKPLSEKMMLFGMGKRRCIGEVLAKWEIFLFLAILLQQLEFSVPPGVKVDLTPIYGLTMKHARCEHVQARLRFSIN
Put plainly: Inhibition of CYP1A2. The format is ADME.

pIC50: −log10 of the molar value. The source made the active and inactive calls.

Chain of Dipeptidyl peptidase 4 (P27487 whole entry): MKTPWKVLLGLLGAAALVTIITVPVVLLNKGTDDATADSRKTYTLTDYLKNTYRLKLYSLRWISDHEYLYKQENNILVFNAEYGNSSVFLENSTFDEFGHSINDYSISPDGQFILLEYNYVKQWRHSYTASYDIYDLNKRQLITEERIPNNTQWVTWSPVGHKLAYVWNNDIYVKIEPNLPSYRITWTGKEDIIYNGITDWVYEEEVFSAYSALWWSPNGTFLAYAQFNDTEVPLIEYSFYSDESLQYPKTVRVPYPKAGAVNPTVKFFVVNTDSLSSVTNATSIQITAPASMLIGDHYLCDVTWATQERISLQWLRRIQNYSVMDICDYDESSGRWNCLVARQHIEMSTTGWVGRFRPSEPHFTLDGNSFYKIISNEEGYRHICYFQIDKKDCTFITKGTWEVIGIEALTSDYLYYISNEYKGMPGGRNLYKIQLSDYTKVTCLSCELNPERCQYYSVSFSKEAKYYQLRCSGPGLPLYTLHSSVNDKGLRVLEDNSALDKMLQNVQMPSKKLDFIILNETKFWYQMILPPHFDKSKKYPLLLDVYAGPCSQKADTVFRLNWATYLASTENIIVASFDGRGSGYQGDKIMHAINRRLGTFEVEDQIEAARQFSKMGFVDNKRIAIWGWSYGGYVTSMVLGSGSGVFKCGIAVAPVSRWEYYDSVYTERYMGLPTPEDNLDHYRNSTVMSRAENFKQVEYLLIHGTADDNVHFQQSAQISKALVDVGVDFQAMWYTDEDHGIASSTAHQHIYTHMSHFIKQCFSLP
Chain of Dipeptidyl peptidase 8 (Q6V1X1 whole entry): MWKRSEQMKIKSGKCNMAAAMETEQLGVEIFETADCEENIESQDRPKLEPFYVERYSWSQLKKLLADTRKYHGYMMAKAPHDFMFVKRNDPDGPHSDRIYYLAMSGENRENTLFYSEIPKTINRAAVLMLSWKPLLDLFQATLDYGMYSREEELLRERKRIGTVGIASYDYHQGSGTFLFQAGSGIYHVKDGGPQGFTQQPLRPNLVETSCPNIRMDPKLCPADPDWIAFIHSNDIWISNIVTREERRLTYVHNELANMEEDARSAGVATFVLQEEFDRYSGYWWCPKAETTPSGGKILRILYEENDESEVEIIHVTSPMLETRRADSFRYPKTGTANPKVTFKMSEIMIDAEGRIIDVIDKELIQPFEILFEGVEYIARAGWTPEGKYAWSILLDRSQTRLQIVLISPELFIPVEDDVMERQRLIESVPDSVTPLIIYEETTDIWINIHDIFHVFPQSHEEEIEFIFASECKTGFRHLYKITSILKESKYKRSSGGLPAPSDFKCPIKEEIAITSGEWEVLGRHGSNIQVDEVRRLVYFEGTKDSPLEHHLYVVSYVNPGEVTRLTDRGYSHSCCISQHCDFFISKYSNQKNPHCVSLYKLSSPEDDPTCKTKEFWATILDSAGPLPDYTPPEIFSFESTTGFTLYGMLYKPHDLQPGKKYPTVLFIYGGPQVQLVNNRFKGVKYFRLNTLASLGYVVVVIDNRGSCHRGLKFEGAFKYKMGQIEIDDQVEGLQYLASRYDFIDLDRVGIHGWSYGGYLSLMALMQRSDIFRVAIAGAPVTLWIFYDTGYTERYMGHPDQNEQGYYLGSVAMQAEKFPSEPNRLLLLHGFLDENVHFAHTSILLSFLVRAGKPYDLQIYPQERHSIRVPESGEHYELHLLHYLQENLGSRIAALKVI
Chain of Cytochrome P450 3A4 (P08684 whole entry): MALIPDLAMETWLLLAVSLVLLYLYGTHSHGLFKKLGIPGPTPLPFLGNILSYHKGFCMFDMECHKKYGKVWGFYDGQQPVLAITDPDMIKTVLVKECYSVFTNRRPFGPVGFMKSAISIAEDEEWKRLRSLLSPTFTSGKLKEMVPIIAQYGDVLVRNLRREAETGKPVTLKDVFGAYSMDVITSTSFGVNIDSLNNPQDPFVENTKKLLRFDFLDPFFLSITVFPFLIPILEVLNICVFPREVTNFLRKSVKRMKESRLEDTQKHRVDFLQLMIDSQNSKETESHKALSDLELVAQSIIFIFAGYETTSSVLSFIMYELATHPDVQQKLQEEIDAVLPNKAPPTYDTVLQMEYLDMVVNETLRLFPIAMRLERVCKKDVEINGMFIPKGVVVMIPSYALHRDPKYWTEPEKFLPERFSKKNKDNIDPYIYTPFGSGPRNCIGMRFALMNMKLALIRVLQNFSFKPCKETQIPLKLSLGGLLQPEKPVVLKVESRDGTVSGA
Chain of Cytochrome P450 2D6 (P10635 whole entry): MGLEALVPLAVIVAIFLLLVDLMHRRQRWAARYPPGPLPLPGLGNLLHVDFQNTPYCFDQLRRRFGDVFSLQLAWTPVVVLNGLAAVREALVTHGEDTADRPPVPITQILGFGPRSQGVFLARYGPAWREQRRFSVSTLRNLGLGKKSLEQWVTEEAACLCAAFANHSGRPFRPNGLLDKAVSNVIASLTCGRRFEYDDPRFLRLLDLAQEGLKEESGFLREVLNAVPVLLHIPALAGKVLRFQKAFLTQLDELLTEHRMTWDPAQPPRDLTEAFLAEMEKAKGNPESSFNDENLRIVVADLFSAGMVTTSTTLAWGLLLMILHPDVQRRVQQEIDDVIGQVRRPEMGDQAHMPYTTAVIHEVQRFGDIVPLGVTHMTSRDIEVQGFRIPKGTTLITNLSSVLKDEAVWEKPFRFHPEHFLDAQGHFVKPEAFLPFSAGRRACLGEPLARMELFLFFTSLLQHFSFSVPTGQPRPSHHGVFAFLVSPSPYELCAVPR
Chain of Cytochrome P450 2C9 (P11712 whole entry): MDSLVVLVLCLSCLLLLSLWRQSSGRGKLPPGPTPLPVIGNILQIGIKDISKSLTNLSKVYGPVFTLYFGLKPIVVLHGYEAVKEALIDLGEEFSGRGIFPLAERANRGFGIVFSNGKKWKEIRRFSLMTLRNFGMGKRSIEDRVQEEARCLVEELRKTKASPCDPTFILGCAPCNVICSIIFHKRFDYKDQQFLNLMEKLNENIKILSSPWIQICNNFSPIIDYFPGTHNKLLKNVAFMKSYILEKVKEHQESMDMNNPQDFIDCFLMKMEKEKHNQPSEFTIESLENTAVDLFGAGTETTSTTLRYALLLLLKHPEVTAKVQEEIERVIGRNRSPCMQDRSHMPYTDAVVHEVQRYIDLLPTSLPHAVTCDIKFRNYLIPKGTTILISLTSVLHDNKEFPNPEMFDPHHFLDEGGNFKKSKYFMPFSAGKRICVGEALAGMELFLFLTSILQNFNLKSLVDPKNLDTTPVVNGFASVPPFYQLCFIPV

As a reminder, the pIC50 is −log10 of the IC50, conventionally taken in molar units. Lower therefore signals a high IC50. Regarding `N[C@H]1CN(c2cc(N3CCc4nocc4C3)ncn2)C[C@@H]1N1CCCCC1=O`, on Dipeptidyl peptidase 4, the pIC50 is 7.92. This compound also displayed a clearance in the series on Liver microsomes of under 7.5 µL/min/mg.
`N[C@H]1CN(c2cc(N3CCc4nocc4C3)ncn2)C[C@@H]1N1CCCC1=O` came in with a clearance in the series on Liver microsomes of under 7 µL/min/mg.
As for `N[C@H]1CN(c2cc(-c3cc(F)c(F)cc3F)ncn2)C[C@@H]1N1CCCCC1=O`, the pIC50 against Dipeptidyl peptidase 4 was 7.33. The compound also came in with a clearance with Liver microsomes of under 7.2 µL/min/mg.
With `N[C@H]1CN(c2cc(-c3cc(F)c(F)cc3F)ncn2)C[C@@H]1N1CCCC1=O`, the negative logarithm of the IC50 (pIC50) against Dipeptidyl peptidase 4 is 6.31. Further, the clearance in the series on Liver microsomes was under 7 µL/min/mg.
Turning to `N[C@H]1CN(c2cc(NC3CC3)ncn2)C[C@@H]1N1CCCC1=O`, in the series with Liver microsomes, the clearance was under 7 µL/min/mg.
Turning to `N[C@H]1CN(c2cc(NC3CC3)ncn2)C[C@@H]1c1ccccc1`, the negative-log IC50 (pIC50) on Dipeptidyl peptidase 4 was 7.72. In the series on Liver microsomes, this compound displayed a clearance of 38 µL/min/mg.
Usually Papp A→B stands for the apparent permeability from the apical to the basolateral side of a cell layer. With `N[C@H]1CN(c2ncnc(-c3ccccc3)n2)C[C@@H]1N1CCCCC1=O`, on Dipeptidyl peptidase 2, the negative-log IC50 (pIC50) is under 4.52. In [1], the Papp A→B came out at 357 nm/s.
Take `N[C@H]1CN(c2cc(NC3CC3)ncn2)C[C@@H]1N1CCCCC1=O`: the clearance in the series with Liver microsomes is under 7 µL/min/mg.
For the compound `Cc1nc(N2C[C@H](N)[C@@H](N3CC(F)(F)CCC3=O)C2)cc(N2CCC(F)(F)C2)n1`, in [1], the apical-to-basolateral permeability (Papp A→B) was found to be 39 nm/s. Moreover, the negative logarithm of the IC50 (pIC50) is 7.89 on Dipeptidyl peptidase 4 and under 4.52 against Dipeptidyl peptidase 8.
Compound `COc1ccc(-c2cc(N3C[C@H](N)[C@@H](N4CCCCC4=O)C3)ncn2)cn1` showed a negative logarithm of the IC50 (pIC50) against Dipeptidyl peptidase 2 of under 4.52. Also, the Papp A→B in series [1] was 27 nm/s.
Usually half-life stands for the time needed for the level to fall by half in the phase considered. A word on the fraction unbound: it is the share of the substance not bound to proteins or other matrix. A lower fraction unbound goes with little free substance. As for `N[C@H]1CN(c2cc(N3CCC(F)(F)C3)ncn2)C[C@@H]1N1CC(F)(F)CCC1=O`, the bioavailability in series [2] came to 50%. For the same compound, the Papp A→B in [1] is 34 nm/s. This compound also showed a pIC50 against Dipeptidyl peptidase 8 of under 4.52. Besides, the Vd in series [3] stood at 5.7 L/kg. The compound also gave a half-life in series [4] of 2.4 h. Also, in series [5], the clearance is 5.04 L/h/kg. The fraction unbound in series [6] was 0.82.
Take `N[C@H]1CN(c2cc(N3CCC(F)(F)C3)ncn2)C[C@@H]1N1CCCCC1=O`: the inhibition result in the series with Rattus norvegicus is “Active”. Further, the bioavailability in series [2] stood at 21%. For the same compound, in [1], the Papp A→B amounted to 18 nm/s. In addition, the negative-log IC50 (pIC50) on Dipeptidyl peptidase 4 was 7.59; on Dipeptidyl peptidase 8, under 4.52. The Vd in series [3] was found to be 2.3 L/kg. Also, the half-life in series [4] is 0.78 h. In series [5], this compound had a clearance of 3.61 L/h/kg. In [6], this compound yielded a free fraction (fraction unbound) of 0.75.
On to `N[C@H]1CN(c2ncnc(N3CCC(F)(F)C3)n2)C[C@@H]1N1CC(F)(F)CCC1=O`, for which the figures for the bioavailability in [2] and in series [9] were 90% and 150%, respectively. The pIC50 against Cytochrome P450 2D6 was under 4.82; against Dipeptidyl peptidase 8, under 4.52; on Cytochrome P450 3A4, under 4.82; against Cytochrome P450 2C9 it was under 4.82; on Cytochrome P450 1A2, under 4.82. Further, the Vd in series [7] turned out to be 1.9 L/kg; in series [3], 8.4 L/kg. Besides, in series [1], the apparent permeability from apical to basolateral (Papp A→B) amounted to 50 nm/s. The fraction unbound in series [8] stood at 0.83. Besides, the clearance in [10] was found to be 0.432 L/h/kg; in [5] it was 2.76 L/h/kg. The figures for the half-life in [4] and in series [11] were 3.6 h and 5.9 h, respectively.
With `N[C@H]1CN(c2cc(-c3cc(F)cc(F)c3F)ncn2)C[C@@H]1c1ccccc1`, the clearance with Liver microsomes was found to be 85 µL/min/mg.
As for `N[C@H]1CN(c2cc(N3CCc4nocc4C3)ncn2)C[C@@H]1c1ccccc1`, the pIC50 on Dipeptidyl peptidase 4 is 8.80. The clearance in the series with Liver microsomes is 56 µL/min/mg.
Turning to `N[C@H]1CN(c2ncnc(N3CCC(F)(F)C3)n2)C[C@@H]1N1CCCCC1=O`, the inhibition entry in the series on Rattus norvegicus is “Active”. Besides, the bioavailability in series [2] is 52%. For the same compound, the apical-to-basolateral permeability (Papp A→B) in [1] was 38 nm/s. The same compound had a negative logarithm of the IC50 (pIC50) at Dipeptidyl peptidase 8 of under 4.52. Also, the Vd in [3] was 4.7 L/kg. In series [4], this compound had a half-life of 5 h. In [5], this compound returned a clearance of 2.21 L/h/kg. The fraction unbound in series [6] is 0.86.
